# Test results as given in ChEMBL document CHEMBL1201862, “PubChem BioAssay data set” (2004).
#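 Exposure lasted 48 hours, with cells grown in 96-well plates and compounds tested at five concentrations. GI50: concentration for 50% inhibition of growth.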 Active and inactive are the calls of the source. No stated cut-off is given here; in the data, active = GI50 up to about 1.1 µM and inactive = higher.
# Assays:
# Test in all cases: NCI-60 cell line screen, 48 h
# 786-0 = tested on: 786-0
# A498 = tested on: A498
# A549 = tested on: A549
# ACHN = tested on: ACHN
# CAKI-1 = tested on: CAKI-1
# CCRF-CEM = tested on: CCRF-CEM
# COLO 205 = tested on: COLO 205
# DLD-1 = tested on: DLD-1
# DMS-114 = tested on: DMS-114
# DMS-273 = tested on: DMS-273
# EKVX = tested on: EKVX
# HCC 2998 = tested on: HCC 2998
# HCT-116 = tested on: HCT-116
# HCT-15 = tested on: HCT-15
# HL-60 = tested on: HL-60
# HOP-18 = tested on: HOP-18
# HOP-62 = tested on: HOP-62
# HOP-92 = tested on: HOP-92
# HT-29 = tested on: HT-29
# IGROV-1 = tested on: IGROV-1
# K562 = tested on: K562
# KM-20L2 = tested on: KM-20L2
# KM12 = tested on: KM12
# LOX IMVI = tested on: LOX IMVI
# LXFL 529 = tested on: LXFL 529
# M14 = tested on: M14
# M19-MEL = tested on: M19-MEL
# MOLT-4 = tested on: MOLT-4
# Malme-3M = tested on: Malme-3M
# NCI-H226 = tested on: NCI-H226
# NCI-H23 = tested on: NCI-H23
# NCI-H460 = tested on: NCI-H460
# NCI-H522 = tested on: NCI-H522
# OVCAR-3 = tested on: OVCAR-3
# OVCAR-4 = tested on: OVCAR-4
# OVCAR-5 = tested on: OVCAR-5
# OVCAR-8 = tested on: OVCAR-8
# RPMI-8226 = tested on: RPMI-8226
# RXF 393 = tested on: RXF 393
# SF-268 = tested on: SF-268
# SF-295 = tested on: SF-295
# SF-539 = tested on: SF-539
# SK-MEL-28 = tested on: SK-MEL-28
# SK-MEL-2 = tested on: SK-MEL-2
# SK-MEL-5 = tested on: SK-MEL-5
# SK-OV-3 = tested on: SK-OV-3
# SN12C = tested on: SN12C
# SNB-19 = tested on: SNB-19
# SNB-75 = tested on: SNB-75
# SNB-78 = tested on: SNB-78
# SW-620 = tested on: SW-620
# TK-10 = tested on: TK-10
# U-251 = tested on: U-251
# UACC-257 = tested on: UACC-257
# UACC-62 = tested on: UACC-62
# UO-31 = tested on: UO-31
# XF498 = tested on: XF498
smiles,measurement,setting,value
CCO[C@@H]1C2C=CC(C2)[C@H]1[N+](=O)[O-] (some centres not stated),GI50,786-0,> 100 µM (inactive)
same,GI50,A498,> 100 µM (inactive)
same,GI50,A549,> 100 µM (inactive)
same,GI50,ACHN,> 100 µM (inactive)
same,GI50,CAKI-1,> 100 µM (inactive)
same,GI50,CCRF-CEM,36.9 µM (inactive)
same,GI50,COLO 205,> 100 µM (inactive)
same,GI50,DLD-1,> 100 µM (inactive)
same,GI50,DMS-114,> 100 µM (inactive)
same,GI50,DMS-273,> 100 µM (inactive)
same,GI50,EKVX,> 100 µM (inactive)
same,GI50,HCC 2998,> 100 µM (inactive)
same,GI50,HCT-116,> 100 µM (inactive)
same,GI50,HCT-15,> 100 µM
same,GI50,HL-60,47.3 µM (inactive)
same,GI50,HOP-18,> 100 µM (inactive)
same,GI50,HOP-62,> 100 µM (inactive)
same,GI50,HOP-92,> 100 µM (inactive)
same,GI50,HT-29,> 100 µM (inactive)
same,GI50,IGROV-1,> 100 µM (inactive)
same,GI50,K562,73.5 µM (inactive)
same,GI50,KM-20L2,> 100 µM (inactive)
same,GI50,KM12,> 100 µM (inactive)
same,GI50,LOX IMVI,> 100 µM (inactive)
same,GI50,LXFL 529,> 100 µM (inactive)
same,GI50,M14,> 100 µM (inactive)
same,GI50,M19-MEL,> 100 µM (inactive)
same,GI50,MOLT-4,> 100 µM (inactive)
same,GI50,Malme-3M,> 100 µM (inactive)
same,GI50,NCI-H226,> 100 µM (inactive)
same,GI50,NCI-H23,> 100 µM (inactive)
same,GI50,NCI-H460,> 100 µM (inactive)
same,GI50,NCI-H522,64 µM (inactive)
same,GI50,OVCAR-3,> 100 µM (inactive)
same,GI50,OVCAR-4,> 100 µM (inactive)
same,GI50,OVCAR-5,> 100 µM (inactive)
same,GI50,OVCAR-8,> 100 µM (inactive)
same,GI50,RPMI-8226,72.1 µM (inactive)
same,GI50,RXF 393,> 100 µM (inactive)
same,GI50,SF-268,> 100 µM (inactive)
same,GI50,SF-295,> 100 µM (inactive)
same,GI50,SF-539,> 100 µM (inactive)
same,GI50,SK-MEL-28,> 100 µM (inactive)
same,GI50,SK-MEL-2,> 100 µM (inactive)
same,GI50,SK-MEL-5,> 100 µM (inactive)
same,GI50,SK-OV-3,> 100 µM (inactive)
same,GI50,SN12C,> 100 µM (inactive)
same,GI50,SNB-19,> 100 µM (inactive)
same,GI50,SNB-75,64.9 µM (inactive)
same,GI50,SNB-78,> 100 µM (inactive)
same,GI50,SW-620,> 100 µM (inactive)
same,GI50,TK-10,> 100 µM (inactive)
same,GI50,U-251,> 100 µM (inactive)
same,GI50,UACC-257,> 100 µM (inactive)
same,GI50,UACC-62,> 100 µM (inactive)
same,GI50,UO-31,> 100 µM (inactive)
same,GI50,XF498,> 100 µM (inactive)
